Assay [1] deals with protease-activated and bradykinin receptors. The conditions noted are these: protease-activated and bradykinin receptor agonists; cited from earlier work.
In another assay the target is T1, T267M ITPR1 (Homo sapiens, UniProt Q14643, T267M).
T1 construct: expressed in transfected cells
As to the kind of experiment: IP3 uncaging assay, HEK293 cells expressing T267M-ITPR1. The conditions noted are these: compound 10 μM; tetracycline-treated; FIG. 6D. It counts as cell-based. On the procedure: (§1) HEK293 cells stably transfected with tetracycline-inducible expression of wild type or mutant (R269W or T267M) ITPR1, kindly provided by Prof. S. R. Wayne Chen (University of Calgary; ref. 14), were cultured in a mixture of Dulbecco's Modified Eagle Medium (DMEM, high glucose version) and Ham's F12 (1:1) and supplemented with 10% fetal bovine serum, 2 mM L-glutamine, 100 U/ml penicillin and 100 μg/ml streptomycin. Cells were selected with 0.5 mg/ml hygromycin B and induced with 1 μg/ml tetracycline.
(§2) FRT and HEK293 cells were cultured in μ-Plate96 microplates (Ibidi) at subconfluent condition. Cells were washed 2 times with PBS (150 μl/wash) and then loaded for 45 min at 37° C. with 1 μM ci-IP3/PM (Tocris; catalog number: 6210/10U) and 5 μM Fluo-4/AM (Thermo Fisher Scientific) in PBS containing 10 mM glucose, 0.5 mM sulfinpyrazone and 1% fetal bovine serum. After 45 min, cells were further incubated for 1 h at 37° C. with a fresh PBS solution containing Fluo-4/AM, glucose, sulfinpyrazone, serum, but no ci-IP3/PM. […] Analysis was performed with MetaFluor software, by quantifying Fluo-4 fluorescence in manually selected single cell region of interest (ROI). […] After background subtraction, fluorescence traces were normalized for the initial value.

Assay [2] deals with T2, ITPR1 (Homo sapiens, UniProt Q14643). Briefly: On-nucleus patch-clamp single-channel recordings, HEKR1 cells expressing ITPR1-EYFP. Type of assay: biochemical. Also on record: EYFP; expressed in transfected cells; nuclei isolated for on-nucleus patch clamp. The conditions noted are these: 20 μM in pipette solution. How it is done: Nuclear membrane patch currents were recorded in HEKR1 cells stably transfected with a plasmid encoding human ITPR1 tagged with Enhanced Yellow Fluorescent Protein (EYFP) kindly provided by Prof. Colin W. Taylor (University of Cambridge) (17). For nuclei isolation, at least 1,000,000 HEKR1-ITPR1-EYFP cells plated in a 35 mm Petri dish were used following the protocol for patch clamp on the outer nuclear membrane (18,19). Briefly, a Duall homogenizer 20 tube (Kimble Chase 885482-0020) and a tissue grind (Kimble 885480-0020) were used. 20 strokes were applied to cells suspended in NIS-0 solution (25). NIS-O solution consisted of 40 ml of sucrose buffer (150 mM KCl, 250 mM sucrose, 1.4 mM β-mercaptoethanol, 10 mM Tris-HCl; pH 7.3 with KOH) supplemented with one tablet of complete protease inhibitor cocktail (Roche) and 200 μM PMSF.
Borosilicate glass pipettes were pulled on a two-step vertical puller (Narishige) to a final resistance of around 15-20 MO, as measured in the working solution. […]
During experiments, the membrane capacitance was analogically compensated using the circuitry provided by the EPC10 patch-clamp amplifier. […] Data were analysed using the Igor software (WaveMetrics, Lake Oswego, OR, USA) supplemented by custom software kindly provided by Dr. Oscar Moran (Institute of Biophysics, CNR, Genova, Italy).
Background: Patch clamp records ionic current or voltage across a cell membrane.

Assay [3] deals with T2, ITPR1. Briefly: ci-IP3/PM uncaging assay in HEK293 cells with selective expression of ITPR1 (HEKR1). It counts as cell-based. Also on record: host or cells: HEKR1 (HEK293). The conditions noted are these: compounds 10 μM; FIG. 4B. How it is done:
HEK293 cells totally devoid of ITPR expression (HEK3XKO) or with selective expression of ITPR1 (HEKR1), ITPR2 (HEKR2), or ITPR3 (HEKR3), obtained by selective gene ablation, were purchased from Kerafast (catalog number: EURO30, EURO31, EURO32, EURO33) and cultured in a mixture of Dulbecco's Modified Eagle Medium (DMEM, high glucose version) and Ham's F12 (1:1) and supplemented with 10% fetal bovine serum, 2 mM L-glutamine, 100 U/ml penicillin and 100 μg/ml streptomycin.
as §2

In a further assay the target is T3, R269W ITPR1 (Homo sapiens, UniProt Q14643, R269W).
T3 construct: expressed in transfected cells
As to the kind of experiment: IP3 uncaging assay, HEK293 cells expressing R269W-ITPR1. Type of assay: cell-based. The conditions noted are these: compound 10 μM; tetracycline-treated; FIG. 6D. How it is done:
as §1, §2

The next assay concerns TMEM16A. As to the kind of experiment: HS-YFP assay in ITPR-defective HEK293 cells transiently transfected with TMEM16A. The conditions noted are these: UTP 5 μM, compound 10 μM, FIG. 2D. It counts as cell-based.

Molecules are shown by their SMILES.

T2 sequence (Q14643 whole entry): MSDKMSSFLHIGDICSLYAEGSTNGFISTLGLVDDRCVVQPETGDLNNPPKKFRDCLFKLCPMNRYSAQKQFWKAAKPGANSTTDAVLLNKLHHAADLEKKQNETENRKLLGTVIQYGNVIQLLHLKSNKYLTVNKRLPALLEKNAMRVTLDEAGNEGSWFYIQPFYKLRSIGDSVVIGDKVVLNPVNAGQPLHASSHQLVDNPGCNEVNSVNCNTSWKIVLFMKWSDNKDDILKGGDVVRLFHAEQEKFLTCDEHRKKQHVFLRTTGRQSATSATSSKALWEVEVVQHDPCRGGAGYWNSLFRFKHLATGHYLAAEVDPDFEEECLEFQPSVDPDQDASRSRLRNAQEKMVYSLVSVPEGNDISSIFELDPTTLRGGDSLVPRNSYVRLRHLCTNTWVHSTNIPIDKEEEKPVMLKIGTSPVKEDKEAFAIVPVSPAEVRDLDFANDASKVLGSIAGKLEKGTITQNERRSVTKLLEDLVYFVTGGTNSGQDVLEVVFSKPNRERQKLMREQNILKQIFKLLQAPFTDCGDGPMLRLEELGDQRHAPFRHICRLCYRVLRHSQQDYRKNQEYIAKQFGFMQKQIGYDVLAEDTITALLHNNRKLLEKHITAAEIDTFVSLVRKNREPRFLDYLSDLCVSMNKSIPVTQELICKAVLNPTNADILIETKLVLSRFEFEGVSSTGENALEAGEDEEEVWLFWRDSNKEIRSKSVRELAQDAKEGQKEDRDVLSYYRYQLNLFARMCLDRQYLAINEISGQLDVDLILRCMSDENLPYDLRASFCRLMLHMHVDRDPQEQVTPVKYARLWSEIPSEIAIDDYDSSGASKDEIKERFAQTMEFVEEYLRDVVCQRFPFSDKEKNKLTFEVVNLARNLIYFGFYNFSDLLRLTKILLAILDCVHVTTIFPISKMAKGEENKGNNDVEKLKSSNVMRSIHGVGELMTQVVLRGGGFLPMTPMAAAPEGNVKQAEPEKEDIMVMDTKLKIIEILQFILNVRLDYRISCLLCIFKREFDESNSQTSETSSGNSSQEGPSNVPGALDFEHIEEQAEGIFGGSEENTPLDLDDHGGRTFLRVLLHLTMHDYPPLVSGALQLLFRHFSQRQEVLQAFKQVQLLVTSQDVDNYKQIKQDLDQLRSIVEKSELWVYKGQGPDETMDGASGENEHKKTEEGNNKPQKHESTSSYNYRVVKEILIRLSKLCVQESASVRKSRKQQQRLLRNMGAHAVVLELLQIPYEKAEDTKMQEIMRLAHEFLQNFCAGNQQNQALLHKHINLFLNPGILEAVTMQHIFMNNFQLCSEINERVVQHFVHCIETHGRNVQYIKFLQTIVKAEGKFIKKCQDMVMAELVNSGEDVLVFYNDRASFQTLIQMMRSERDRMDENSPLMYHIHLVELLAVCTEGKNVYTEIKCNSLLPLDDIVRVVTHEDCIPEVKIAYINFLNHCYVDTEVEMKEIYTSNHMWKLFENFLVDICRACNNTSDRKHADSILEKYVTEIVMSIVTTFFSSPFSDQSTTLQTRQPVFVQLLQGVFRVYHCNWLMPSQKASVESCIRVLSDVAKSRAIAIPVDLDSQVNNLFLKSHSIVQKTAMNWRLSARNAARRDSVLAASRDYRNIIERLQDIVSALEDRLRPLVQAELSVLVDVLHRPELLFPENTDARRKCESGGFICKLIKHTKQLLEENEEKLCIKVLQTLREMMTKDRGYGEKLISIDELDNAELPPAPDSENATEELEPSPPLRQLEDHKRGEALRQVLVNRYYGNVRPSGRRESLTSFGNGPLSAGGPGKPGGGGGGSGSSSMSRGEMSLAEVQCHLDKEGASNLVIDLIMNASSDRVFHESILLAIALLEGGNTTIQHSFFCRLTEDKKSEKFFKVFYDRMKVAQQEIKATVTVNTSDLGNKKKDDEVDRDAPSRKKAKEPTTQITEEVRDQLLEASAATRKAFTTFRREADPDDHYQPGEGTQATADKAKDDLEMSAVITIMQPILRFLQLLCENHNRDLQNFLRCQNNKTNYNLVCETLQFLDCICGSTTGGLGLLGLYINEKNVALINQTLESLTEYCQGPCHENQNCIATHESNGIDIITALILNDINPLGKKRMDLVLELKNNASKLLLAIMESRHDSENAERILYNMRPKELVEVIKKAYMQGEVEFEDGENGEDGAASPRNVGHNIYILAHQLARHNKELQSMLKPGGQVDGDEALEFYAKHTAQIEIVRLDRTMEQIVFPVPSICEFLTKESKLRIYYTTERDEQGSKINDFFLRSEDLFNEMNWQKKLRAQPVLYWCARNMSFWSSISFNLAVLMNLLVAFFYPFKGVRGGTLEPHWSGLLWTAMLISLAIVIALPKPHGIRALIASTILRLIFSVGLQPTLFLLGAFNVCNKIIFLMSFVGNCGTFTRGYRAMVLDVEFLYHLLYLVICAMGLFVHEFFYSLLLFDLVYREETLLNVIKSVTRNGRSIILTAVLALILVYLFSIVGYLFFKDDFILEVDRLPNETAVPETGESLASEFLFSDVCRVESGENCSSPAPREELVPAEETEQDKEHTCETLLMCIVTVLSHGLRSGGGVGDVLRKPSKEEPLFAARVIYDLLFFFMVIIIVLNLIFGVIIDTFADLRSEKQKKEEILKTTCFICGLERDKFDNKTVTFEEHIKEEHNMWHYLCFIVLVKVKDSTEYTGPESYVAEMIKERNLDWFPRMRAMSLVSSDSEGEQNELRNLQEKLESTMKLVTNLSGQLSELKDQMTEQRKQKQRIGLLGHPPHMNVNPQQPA

Take `CCc1cc(-c2cc(NCCCOc3ccccc3C)nc(N)n2)n(C)n1` [ARN7149, 6-(3-Ethyl-1-methyl-1H-pyrazol-5-yl)-N^4-(3-(o-tolyloxy)propyl)pyrimidine-2,4-diamine]: in assay [1], the “effectiveness by agonist inducing Ca2+ mobilization (UTP vs other GPCR agonists)” value is “only effective when Ca^2+ mobilization is induced by UTP”.

`CCn1nc2c(c1C(=O)Nc1ccccc1OCC1CCCCO1)CCCC2` (stereo not shown) [ARN11391, 2-Ethyl-N-[2-(tetrahydropyran-2-ylmethoxy)phenyl]-4,5,6,7-tetrahydroindazole-3-carboxamide]: on T267M ITPR1, the “Ca2+ mobilization elicited by IP3 uncaging, T267M-ITPR1” value is recorded as “significantly amplified”. Moreover, on ITPR1 [2] (Vp=+40 mV, FIG. 6A), the “open channel probability (Po), average” value was about 0.2. Also, the “attempts with single channel openings of the expected ITPR1 current amplitude” value at ITPR1 [2] (~10 pA at +40 mV) is given as 5 out of 32. In addition, the “activity on Ca2+ mobilization by IP3 uncaging, cells with selective expression of ITPR1” value on ITPR1 [3] was “uniquely effective”. Further, the “Ca2+ mobilization elicited by IP3 uncaging, R269W-ITPR1” value on R269W ITPR1 is “significantly amplified”. In the assay on TMEM16A, the “activation of TMEM16A by UTP with/without compound (HS-YFP)” value is “no activation”.

Values taken from patent US20260138970A1, “MODULATORS OF THE CALCIUM SIGNALING CASCADE” (FONDAZIONE TELETHON ETS, priority 2022, published 2026).
